This passage reports IC50 results from patent US12565501B2, “Muscarinic acetylcholine M1 receptor antagonists” (Contineum Therapeutics, Inc., priority 2019, dated 2026).

The term IC50 denotes the concentration needed to halve the response being measured.

Bounds are passed on as bounds.

The test deals with T1, human M1 receptor (Homo sapiens, UniProt P11229).
T1 sequence (P11229 1-460): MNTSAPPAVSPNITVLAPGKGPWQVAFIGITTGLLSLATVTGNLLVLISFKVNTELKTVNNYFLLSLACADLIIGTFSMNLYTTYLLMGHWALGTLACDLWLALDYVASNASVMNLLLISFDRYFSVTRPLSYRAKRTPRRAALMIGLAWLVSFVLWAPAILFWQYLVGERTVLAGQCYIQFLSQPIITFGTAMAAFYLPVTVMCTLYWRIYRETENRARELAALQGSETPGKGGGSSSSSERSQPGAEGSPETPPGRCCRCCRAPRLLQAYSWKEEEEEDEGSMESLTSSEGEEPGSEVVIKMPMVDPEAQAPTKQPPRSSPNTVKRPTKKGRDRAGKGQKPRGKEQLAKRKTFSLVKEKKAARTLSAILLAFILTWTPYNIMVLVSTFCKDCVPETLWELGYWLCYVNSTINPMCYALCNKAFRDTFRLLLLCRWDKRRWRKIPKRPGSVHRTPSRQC
The test is described as follows: In vitro functional assay of muscarinic acetylcholine receptor activity (aequorin calcium flux, reversal of EC80 acetylcholine response). It counts as cell-based. The settings on record: CHO-K1 cells stably expressing human M1 receptor with aequorin; acetylcholine at EC80; calcium flux (luminescence); read-out: M1 IC50. The essentials: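 Antagonist mode: compound (final 0.1% DMSO) and coelenterazine-loaded M1/aequorin CHO-K1 cells incubated 30 min in the dark before EC80 acetylcholine addition. Calcium flash integrated as 40 s luminescence AUC; IC50 derived from dose-response curves.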

In the case of `COc1ccc(C2(NCCC(=O)N3CC4CCC(C3)N4c3ccc(C#N)cn3)CC2)cc1` [Example 17, 6-(3-(3-((1-(4-methoxyphenyl)cyclopropyl)amino)propanoyl)-3,8-diazabicyclo[3.2.1]octan-8-yl)nicotinonitrile], the IC50 was in the range of 100 to 1000 nM. As for `N#Cc1ccc(N2[C@@H]3CC[C@H]2CN(C(=O)CCNC2(c4ccccn4)CC2)C3)nc1` [Example 18, 6-(3-(3-((1-(pyridin-2-yl)cyclopropyl)amino)propanoyl)-3,8-diazabicyclo[3.2.1]octan-8-yl)nicotinonitrile], the IC50 lay within 1000 to 10000 nM. Take `N#Cc1ccc(N2[C@@H]3CC[C@H]2CN(C(=O)CCNC2(c4cccnc4)CC2)C3)nc1` [Example 19, 6-(3-(3-((1-(pyridin-3-yl)cyclopropyl)amino)propanoyl)-3,8-diazabicyclo[3.2.1]octan-8-yl)nicotinonitrile]: the IC50 fell in the range of 100 to 1000 nM. The figure for `N#Cc1ccc(N2[C@@H]3CC[C@H]2CN(C(=O)CCNC2(c4ncccc4F)CC2)C3)nc1` [Example 20, 6-(3-(3-((1-(3-fluoropyridin-2-yl)cyclopropyl)amino)propanoyl)-3,8-diazabicyclo[3.2.1]octan-8-yl)nicotinonitrile] is 1000 to 10000 nM; for `COc1cc([C@@H](C)NCCC(=O)N2C[C@H]3CC[C@@H](C2)N3c2ccc(C#N)cn2)ccn1` [Example 21, 6-(3-(3-(((R)-1-(2-methoxypyridin-4-yl)ethyl)amino)propanoyl)-3,8-diazabicyclo[3.2.1]octan-8-yl)nicotinonitrile] it is 100 to 1000 nM; for `COc1cc([C@H](C)NCCC(=O)N2C[C@H]3CC[C@@H](C2)N3c2ccc(C#N)cn2)ccn1` [Example 22, 6-(3-(3-(((S)-1-(2-methoxypyridin-4-yl)ethyl)amino)propanoyl)-3,8-diazabicyclo[3.2.1]octan-8-yl)nicotinonitrile] it is 1000 to 10000 nM. As to `N#Cc1ccc(N2C3CCC2CN(C(=O)CCN2CC(c4ccc(F)cc4)C2)C3)nc1` [Example 24], the IC50 was more than 1000 nM. Regarding `CC(C)(NCCC(=O)N1C[C@H]2CC[C@@H](C1)N2c1ccc(C#N)cn1)c1cccc2ncccc12` [Example 25, 6-(3-(3-((2-(quinolin-5-yl)propan-2-yl)amino)propanoyl)-3,8-diazabicyclo[3.2.1]octan-8-yl)nicotinonitrile], the IC50 was less than 10 nM. As for `N#Cc1ccc(N2[C@@H]3CC[C@H]2CN(C(=O)CCNC2(c4ccc(F)cc4F)CC2)C3)nc1` [Example 26, 6-(3-(3-((1-(2,4-difluorophenyl)cyclopropyl)amino)propanoyl)-3,8-diazabicyclo[3.2.1]octan-8-yl)nicotinonitrile], the IC50 fell in the range of 10 to 100 nM. As to `N#Cc1ccc(N2[C@@H]3CC[C@H]2CN(C(=O)CCNC2(c4cccc5ncccc45)CC2)C3)nc1` [Example 27, 6-(3-(3-((1-(quinolin-5-yl)cyclopropyl)amino)propanoyl)-3,8-diazabicyclo[3.2.1]octan-8-yl)nicotinonitrile], the IC50 is less than 10 nM. `N#Cc1ccc(N2[C@@H]3CC[C@H]2CN(C(=O)CCNC2(c4ccc(F)nc4)CC2)C3)nc1` [Example 28, 6-(3-(3-((1-(6-fluoropyridin-3-yl)cyclopropyl)amino)propanoyl)-3,8-diazabicyclo[3.2.1]octan-8-yl)nicotinonitrile]: the IC50 was less than 10 nM. The figure for `N#Cc1ccc(N2[C@@H]3CC[C@H]2CN(C(=O)CCNC2(c4ccc(F)cn4)CC2)C3)nc1` [Example 29, 6-(3-(3-((1-(5-fluoropyridin-2-yl)cyclopropyl)amino)propanoyl)-3,8-diazabicyclo[3.2.1]octan-8-yl)nicotinonitrile] is 1000 to 10000 nM.

Consider `N#Cc1ccc(N2[C@@H]3CC[C@H]2CN(C(=O)CCNC2(c4cncc(F)c4)CC2)C3)nc1` [Example 30, 6-(3-(3-((1-(5-fluoropyridin-3-yl)cyclopropyl)amino)propanoyl)-3,8-diazabicyclo[3.2.1]octan-8-yl)nicotinonitrile], for which the IC50 lay in the range of 100 to 1000 nM. Consider `N#Cc1ccc(N2[C@@H]3CC[C@H]2CN(C(=O)CCNC2(c4ncc(F)cc4F)CC2)C3)nc1` [Example 31, 6-(3-(3-((1-(3,5-difluoropyridin-2-yl)cyclopropyl)amino)propanoyl)-3,8-diazabicyclo[3.2.1]octan-8-yl)nicotinonitrile], for which the concentration for half-maximal inhibition (IC50) lay within 100 to 1000 nM.

As for `N#Cc1ccc(N2[C@@H]3CC[C@H]2CN(C(=O)CCNC2(c4cccc(F)c4F)CC2)C3)nc1` [Example 32, 6-(3-(3-((1-(2,3-difluorophenyl)cyclopropyl)amino)propanoyl)-3,8-diazabicyclo[3.2.1]octan-8-yl)nicotinonitrile], the IC50 fell in the range of 10 to 100 nM. Consider `N#Cc1ccc(N2[C@@H]3CC[C@H]2CN(C(=O)CCNC2(c4cc(F)cc(F)c4)CC2)C3)nc1` [Example 33, 6-(3-(3-((1-(3,5-difluorophenyl)cyclopropyl)amino)propanoyl)-3,8-diazabicyclo[3.2.1]octan-8-yl)nicotinonitrile], for which the IC50 is 10 to 100 nM. For `N#Cc1ccc(N2[C@@H]3CC[C@H]2CN(C(=O)CCNC2(c4ccc(Cl)c(F)c4)CC2)C3)nc1` [Example 34, 6-(3-(3-((1-(4-chloro-3-fluorophenyl)cyclopropyl)amino)propanoyl)-3,8-diazabicyclo[3.2.1]octan-8-yl)nicotinonitrile], the IC50 is less than 10 nM. `N#Cc1ccc(N2[C@@H]3CC[C@H]2CN(C(=O)CCNC2(c4ccc(F)c(Cl)c4)CC2)C3)nc1` [Example 35, 6-(3-(3-((1-(3-chloro-4-fluorophenyl)cyclopropyl)amino)propanoyl)-3,8-diazabicyclo[3.2.1]octan-8-yl)nicotinonitrile]: the IC50 was in the range of 10 to 100 nM.

As to `COc1cc(C2(NCCC(=O)N3CC4CCC(C3)N4c3ccc(C#N)cn3)CC2)ccn1` [Example 36, 6-(3-(3-((1-(2-methoxypyridin-4-yl)cyclopropyl)amino)propanoyl)-3,8-diazabicyclo[3.2.1]octan-8-yl)nicotinonitrile], the IC50 lay in the range of 1000 to 10000 nM. Turning to `N#Cc1ccc(N2[C@@H]3CC[C@H]2CN(C(=O)CCNC2(c4ccc(F)c(F)c4)CCC2)C3)nc1` [Example 37, 6-(3-(3-((1-(3,4-difluorophenyl)cyclobutyl)amino)propanoyl)-3,8-diazabicyclo[3.2.1]octan-8-yl)nicotinonitrile], the IC50 was less than 10 nM. As to `N#Cc1ccc(N2[C@@H]3COC[C@H]2CN(C(=O)CCNC2(c4ccc(F)c(F)c4)CC2)C3)nc1` [Example 39, 6-(7-(3-((1-(3,4-difluorophenyl)cyclopropyl)amino)propanoyl)-3-oxa-7,9-diazabicyclo[3.3.1]nonan-9-yl)nicotinonitrile], the IC50 fell in the range of 100 to 1000 nM. On to `N#Cc1ccc(N2[C@@H]3C[C@H]2CN(C(=O)CCNC2(c4ccc(F)c(F)c4)CC2)C3)nc1` [Example 40, 6-(3-(3-((1-(3,4-difluorophenyl)cyclopropyl)amino)propanoyl)-3,6-diazabicyclo[3.1.1]heptan-6-yl)nicotinonitrile], for which the IC50 lay in the range of 1000 to 10000 nM.

For the molecule `N#Cc1ccc(N2C[C@H]3CC[C@@H]2CN3C(=O)CCNC2(c3ccc(F)c(F)c3)CC2)nc1` [Example 41, 6-((1R,4R)-5-(3-((1-(3,4-difluorophenyl)cyclopropyl)amino)propanoyl)-2,5-diazabicyclo[2.2.2]octan-2-yl)nicotinonitrile], the IC50 fell in the range of 10 to 100 nM.

For the molecule `N#Cc1ccc(N2[C@@H]3CC[C@H]2CN(C(=O)CCNC2(c4ccc(F)c(F)c4)CC2)C3)nn1` [Example 42, 6-(3-(3-((1-(3,4-difluorophenyl)cyclopropyl)amino)propanoyl)-3,8-diazabicyclo[3.2.1]octan-8-yl)pyridazine-3-carbonitrile], the IC50 was less than 10 nM.

`N#Cc1cc(N2[C@@H]3CC[C@H]2CN(C(=O)CCNC2(c4ccc(F)c(F)c4)CC2)C3)ccn1` [Example 43, 4-(3-(3-((1-(3,4-difluorophenyl)cyclopropyl)amino)propanoyl)-3,8-diazabicyclo[3.2.1]octan-8-yl)picolinonitrile]: the IC50 was 10 to 100 nM. Consider `N#Cc1cnc(N2[C@@H]3CC[C@H]2CN(C(=O)CCNC2(c4ccc(F)c(F)c4)CC2)C3)nc1` [Example 44, 2-(3-(3-((1-(3,4-difluorophenyl)cyclopropyl)amino)propanoyl)-3,8-diazabicyclo[3.2.1]octan-8-yl)pyrimidine-5-carbonitrile], for which the IC50 was in the range of 100 to 1000 nM. `N#Cc1cnc(N2[C@@H]3CC[C@H]2CN(C(=O)CCNC2(c4ccc(F)c(F)c4)CC2)C3)cn1` [Example 45, 5-(3-(3-((1-(3,4-difluorophenyl)cyclopropyl)amino)propanoyl)-3,8-diazabicyclo[3.2.1]octan-8-yl)pyrazine-2-carbonitrile]: the IC50 lay in the range of 10 to 100 nM. The figure for `N#Cc1ccc(N2[C@@H]3CC[C@H]2CN(C(=O)CCNC2(c4ccc(F)c(F)c4)CC2)C3)cn1` [Example 46, 5-(3-(3-((1-(3,4-difluorophenyl)cyclopropyl)amino)propanoyl)-3,8-diazabicyclo[3.2.1]octan-8-yl)picolinonitrile] is less than 10 nM. In the case of `Cc1ccc(N2[C@@H]3CC[C@H]2CN(C(=O)CCNC2(c4ccc(F)c(F)c4)CC2)C3)nn1` [Example 47, 3-((1-(3,4-difluorophenyl)cyclopropyl)amino)-1-(8-(6-methylpyridazin-3-yl)-3,8-diazabicyclo[3.2.1]octan-3-yl)propan-1-one], the IC50 fell in the range of 10 to 100 nM.
